In patent US20250304644A1, “PEPTIDES TRIPLE AGONISTS OF GIP, GLP-1 AND GLP-2” (BAINAN BIOTECH APS, priority 2021, published 2025) one finds Emax and EC50 data, which are given here for 3 molecules.

Holding throughout (assay type): cell-based
One test addresses T1, human GLP-2R (Homo sapiens, UniProt O95838).
T1 construct: host or cells: COS-7
T1 sequence (O95838 1-553): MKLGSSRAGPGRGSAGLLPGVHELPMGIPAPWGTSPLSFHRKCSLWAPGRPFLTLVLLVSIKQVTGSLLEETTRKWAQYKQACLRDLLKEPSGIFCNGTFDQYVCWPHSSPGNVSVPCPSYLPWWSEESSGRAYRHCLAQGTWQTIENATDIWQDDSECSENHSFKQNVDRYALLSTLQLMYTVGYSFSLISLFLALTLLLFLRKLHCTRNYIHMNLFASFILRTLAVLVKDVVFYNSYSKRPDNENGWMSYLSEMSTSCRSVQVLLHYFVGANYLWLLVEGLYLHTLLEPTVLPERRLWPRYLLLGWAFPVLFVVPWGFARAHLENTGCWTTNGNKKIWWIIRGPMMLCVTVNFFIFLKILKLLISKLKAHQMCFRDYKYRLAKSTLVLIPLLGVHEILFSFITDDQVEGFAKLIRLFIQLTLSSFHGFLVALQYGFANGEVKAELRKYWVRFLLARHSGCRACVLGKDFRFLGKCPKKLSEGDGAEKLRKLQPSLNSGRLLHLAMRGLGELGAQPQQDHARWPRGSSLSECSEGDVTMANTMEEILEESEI
As to the kind of experiment: cAMP assay (HitHunter) in transiently transfected COS-7 cells expressing human GLP-2R. The following applies: for Emax: COS-7, normalized to highest concentration of the endogenous ligand, read-out: Efficacy GLP-2R (Emax). As for the experimental part: (§1) The next day the assay was initiated by washing with HEPES buffered saline (HBS) and followed by an incubation step with assay buffer (HBS added 1 mM isobutyl-1-methylxanthine (IBMX)) for 30 min at 37° C. The ligands were then added and incubated for an additional 30 min at 37° C. After ligand incubation, the HitHunter® CAMP assay (Eurofins DiscoverX, Fremont, […] USA) was carried out according to the manufacturer's instructions. […] The potencies (EC50 values) were determined by nonlinear regression using GraphPad Prism 9 (San Diego, California, USA). Sigmoid curves were fitted logistically. The efficacies (Emax values) were determined by normalization to the highest concentration applied of the endogenous ligand for each receptor.
In general terms: Changes in cAMP serve as a functional read-out for many G protein-coupled receptors.

For the next test, the target named is T2, human GIPR (Homo sapiens, UniProt P48546).
T2 construct: host or cells: COS-7
T2 sequence (P48546 22-466): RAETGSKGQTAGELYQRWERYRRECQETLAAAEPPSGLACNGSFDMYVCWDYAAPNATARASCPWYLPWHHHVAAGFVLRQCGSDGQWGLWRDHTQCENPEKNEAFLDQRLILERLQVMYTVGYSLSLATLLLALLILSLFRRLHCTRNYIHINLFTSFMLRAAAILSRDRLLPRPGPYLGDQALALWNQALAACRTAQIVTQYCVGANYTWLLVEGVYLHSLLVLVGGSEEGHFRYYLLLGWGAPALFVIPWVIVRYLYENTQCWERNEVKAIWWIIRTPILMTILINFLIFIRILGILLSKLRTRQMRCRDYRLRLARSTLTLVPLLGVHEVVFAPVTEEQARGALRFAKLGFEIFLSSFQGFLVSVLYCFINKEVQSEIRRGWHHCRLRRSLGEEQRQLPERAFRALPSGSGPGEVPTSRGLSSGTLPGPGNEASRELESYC
The experiment in a line: cAMP assay (HitHunter) in transiently transfected COS-7 cells expressing human GIPR. The following applies: for Emax: COS-7, normalized to highest concentration of the endogenous ligand, read-out: Efficacy GIPR (Emax). The procedure: as §1

In the next test the target is T3, human GLP-1R (Homo sapiens, UniProt P43220).
T3 construct: host or cells: COS-7
T3 sequence (P43220 24-463): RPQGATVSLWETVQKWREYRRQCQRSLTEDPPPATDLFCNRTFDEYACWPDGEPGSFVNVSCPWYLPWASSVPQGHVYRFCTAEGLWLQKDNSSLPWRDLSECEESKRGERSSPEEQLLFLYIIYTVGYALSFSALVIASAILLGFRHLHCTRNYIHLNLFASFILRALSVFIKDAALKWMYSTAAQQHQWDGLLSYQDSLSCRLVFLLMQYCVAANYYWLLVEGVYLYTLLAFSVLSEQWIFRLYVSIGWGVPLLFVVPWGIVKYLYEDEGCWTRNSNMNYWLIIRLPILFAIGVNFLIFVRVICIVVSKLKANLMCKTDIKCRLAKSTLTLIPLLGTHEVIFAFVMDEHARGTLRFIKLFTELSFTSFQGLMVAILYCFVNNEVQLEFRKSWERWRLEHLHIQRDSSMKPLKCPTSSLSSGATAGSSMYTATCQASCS
As to the kind of experiment: cAMP assay (HitHunter) in transiently transfected COS-7 cells expressing human GLP-1R. The following applies: for Emax: COS-7, normalized to highest concentration of the endogenous ligand, read-out: Efficacy GLP-1R (Emax). The procedure: as §1

SMILES strings stand for the structures. Where a SMILES comes first, the peptide text is derived from it. [ ]: non-standard residue; d: D form. The star is where a group is joined. Decanoyl = CCCCCCCCCC(=O)*; Aib = CC(C)(N)C(=O)O

By Emax is commonly meant the size of the effect at its maximum, as opposed to the concentration needed. One may read the EC50 as the concentration that produces a half-maximal response.

On to `CCCCCCCCCC(=O)NCCCC[C@H](NC(=O)[C@@H](NC(=O)[C@@H](NC(=O)[C@H](CCCCN)NC(=O)[C@@H](NC(=O)[C@H](CCC(N)=O)NC(=O)[C@@H](NC(=O)[C@H](CC(C)C)NC(=O)[C@H](Cc1c[nH]c2ccccc12)NC(=O)[C@H](CC(N)=O)NC(=O)[C@@H](NC(=O)[C@H](Cc1ccccc1)NC(=O)[C@H](CC(=O)O)NC(=O)[C@H](CCCNC(=N)N)NC(=O)[C@H](C)NC(=O)[C@H](C)NC(=O)[C@H](CC(C)C)NC(=O)[C@H](CC(N)=O)NC(=O)[C@H](CC(=O)O)NC(=O)[C@H](CC(C)C)NC(=O)[C@H](CCC(=O)O)NC(=O)[C@@H](NC(=O)[C@H](CO)NC(=O)[C@H](Cc1ccc(O)cc1)NC(=O)[C@H](CC(=O)O)NC(=O)[C@H](CO)NC(=O)[C@@H](NC(=O)[C@H](Cc1ccccc1)NC(=O)[C@@H](NC(=O)CNC(=O)[C@H](CC(=O)O)NC(=O)C(C)(C)NC(=O)[C@@H](N)Cc1c[nH]cn1)[C@@H](C)O)[C@@H](C)CC)[C@@H](C)O)[C@@H](C)CC)[C@@H](C)CC)[C@@H](C)O)[C@@H](C)CC)[C@@H](C)O)C(N)=O` [Compound 13] (H-H[Aib]DGTFISDYSTELDNLAARDFINWLIQTKITK(Decanoyl)-NH2), for which the Emax at human GLP-2R was 86%; at human GIPR it was 117%; on human GLP-1R it was 85%. Besides, the EC50 at human GLP-2R (cAMP, COS-7 cells, human GLP-2R, read-out: EC50 (nM) GLP-2R) is 25.1 nM; at human GLP-1R (cAMP, COS-7 cells, human GLP-1R, read-out: EC50 (nM) GLP-1R), 25.1 nM.

For `CCCCCCCCCC(=O)NCCCC[C@H](NC(=O)[C@H](CCCCN)NC(=O)CNC(=O)[C@H](CCCCN)NC(=O)[C@@H](NC(=O)[C@H](CCC(N)=O)NC(=O)[C@@H](NC(=O)[C@H](CC(C)C)NC(=O)[C@H](Cc1c[nH]c2ccccc12)NC(=O)[C@H](CC(N)=O)NC(=O)[C@@H](NC(=O)[C@H](Cc1ccccc1)NC(=O)[C@H](CC(=O)O)NC(=O)[C@H](CCCNC(=N)N)NC(=O)[C@H](C)NC(=O)[C@H](C)NC(=O)[C@H](CC(C)C)NC(=O)[C@H](CC(N)=O)NC(=O)[C@H](CC(=O)O)NC(=O)[C@H](CC(C)C)NC(=O)[C@@H](NC(=O)[C@@H](NC(=O)[C@H](CO)NC(=O)[C@H](Cc1ccc(O)cc1)NC(=O)[C@H](CC(=O)O)NC(=O)[C@H](CO)NC(=O)[C@@H](NC(=O)[C@H](Cc1ccccc1)NC(=O)[C@@H](NC(=O)CNC(=O)[C@H](CC(=O)O)NC(=O)C(C)(C)NC(=O)[C@@H](N)Cc1c[nH]cn1)[C@@H](C)O)[C@@H](C)CC)[C@@H](C)O)[C@@H](C)CC)[C@@H](C)CC)[C@@H](C)CC)[C@@H](C)O)C(N)=O` [Compound 14] (H-H[Aib]DGTFISDYSTILDNLAARDFINWLIQTKGKK(Decanoyl)-NH2), the figures for the Emax at human GLP-2R, on human GIPR and at human GLP-1R were 92%, 91% and 96%, respectively.

With `CCCCCCCCCC(=O)NCCCC[C@H](NC(=O)[C@@H](NC(=O)[C@@H](NC(=O)[C@H](CCCCN)NC(=O)[C@@H](NC(=O)[C@H](CCC(N)=O)NC(=O)[C@@H](NC(=O)[C@H](CC(C)C)NC(=O)[C@H](Cc1c[nH]c2ccccc12)NC(=O)[C@H](CC(N)=O)NC(=O)[C@@H](NC(=O)[C@H](Cc1ccccc1)NC(=O)[C@H](CC(=O)O)NC(=O)[C@H](CCCNC(=N)N)NC(=O)[C@H](C)NC(=O)[C@H](C)NC(=O)[C@H](CC(C)C)NC(=O)[C@H](CC(N)=O)NC(=O)[C@H](CC(=O)O)NC(=O)[C@H](CC(C)C)NC(=O)[C@@H](NC(=O)[C@@H](NC(=O)[C@H](CO)NC(=O)[C@H](Cc1ccc(O)cc1)NC(=O)[C@H](CC(=O)O)NC(=O)[C@H](CO)NC(=O)[C@@H](NC(=O)[C@H](Cc1ccccc1)NC(=O)[C@@H](NC(=O)CNC(=O)[C@H](CC(=O)O)NC(=O)C(C)(C)NC(=O)[C@@H](N)Cc1ccc(O)cc1)[C@@H](C)O)[C@@H](C)CC)[C@@H](C)O)[C@@H](C)CC)[C@@H](C)CC)[C@@H](C)CC)[C@@H](C)O)[C@@H](C)CC)[C@@H](C)O)C(N)=O` [Compound 16] (H-Y[Aib]DGTFISDYSTILDNLAARDFINWLIQTKITK(Decanoyl)-NH2; N-terminus assumed), the maximal effect (Emax) amounted to 93% at human GLP-2R, 99% at human GIPR and 59% on human GLP-1R. The molecule also displayed an EC50 on human GIPR (cAMP, COS-7 cells, human GIPR) of 1 nM.
